Source: US10632147B2, “Methods and compositions for treating inflammatory disorders” (priority 2007, dated 2020)

How the values were obtained:
[1] = tested on: Bacteroides fragilis ATCC #25285; test: Microbial Time Kill Assay; format: cell-based; details: 150 ppm AFC, 15 second contact time
[2] = tested on: Poliovirus Enterovirus 1; format: cell-based
[3] = tested on: Bacillus subtilis var. niger CIP 7 718; test: Sporicidal suspension test; format: cell-based
Description: (§1) Sporicidal activity tests were performed using hypochlorous acid solution against Bacillus cereus CIP 7803, Bacillus subtilis CIP 7718, Clostridium sporogenes CIP 7939. Stock spore suspensions of Bacillus cereus CIP 7803, Bacillus subtilis CIP 7718, Clostridium sporogenes CIP 7939 were obtained from the Pasteur Institute's National Collection for the Culture of micro-organisms. Spore suspensions (1 ml) were added to 4 ml of sterile distilled water and 5 ml of hypochlorous acid solution at a range of concentrations at 20° C. After an exposure time of 60 minutes, 1 ml samples were neutralized using standard quench solution. All samples were serially diluted, plated out on selective agar, incubated aerobically or anaerobically at either 30° C. or 37° C. for 72 hours and colonies forming units counted.

[4] = tested on: Clostridium sporogenes CIP 7 939; test: Sporicidal suspension test; format: cell-based
Description: as §1

[5] = tested on: Bacillus cereus CIP 7 803; test: Sporicidal suspension test; format: cell-based
[6] = tested on: Escherichia coli ATCC #8739; test: Microbial Time Kill Assay; format: cell-based; details: 150 ppm AFC, 15 second contact time
[7] = tested on: Candida albicans ATCC #10231; test: Microbial Time Kill Assay; format: cell-based; details: 150 ppm AFC, 15 second contact time
Description: (§2) Fungicidal activity tests were performed using hypochlorous acid (140-150 ppm) against Candida albicans ATCC 10231 and Aspergillus niger ATCC 16404. Stock culture of Candida albicans ATCC 10231 and Aspergillus niger ATCC 16404 were grown and maintained on Malt Extract Agar at 30° C. […] All samples were serially diluted, plated out on Tryptic Soy Agar, incubated at 37° C. for 3 days and colonies forming units counted.

[8] = tested on: Enterococcus faecium ATCC #35667; test: Microbial Time Kill Assay; format: cell-based; details: 150 ppm AFC, 15 second contact time
[9] = tested on: Salmonella typhimuium (strains TA1535, TA1537, TA98 and TA100); test: Bacterial mutagenicity; details: 241-252 ppm AFC, absence and presence of liver S9 fraction
[10] = tested on: Micrococcus luteus ATCC #10240; test: Microbial Time Kill Assay; format: cell-based; details: 150 ppm AFC, 15 second contact time
[11] = tested on: MS2; test: MS2 coliphage virus carrier test; details: ceramic tiles and stainless steels, 1 min contact time, 20-200 ppm, infectivity
[12] = tested on: Enterococcus faecium ATCC 10541; test: Bactericidal suspension test; format: cell-based
[13] = Acute oral toxicity; details: 500 ppm AFC, single dose of 5 g/kg orally, observed up to 14 days
[14] = tested on: Klebsiella oxytoca ATCC #12833; test: Microbial Time Kill Assay; format: cell-based; details: 150 ppm AFC, 15 second contact time
[15] = tested on: Serratia marcescens ATCC #14756; test: Microbial Time Kill Assay; format: cell-based; details: 150 ppm AFC, 15 second contact time
[16] = tested on: Proteus mirabilis ATCC #43071; test: Microbial Time Kill Assay; format: cell-based; details: 150 ppm AFC, 15 second contact time
[17] = tested on: Clostridium difficile (spores); test: Endospore Time Kill Assay; format: cell-based; details: for Log Reduction / Vashe Log10 / Vashe Survivors / % Reduction (% Kill): ≤150 ppm AFC
[18] = tested on: Streptococcus pyogenes ATCC #19615; test: Microbial Time Kill Assay; format: cell-based; details: 150 ppm AFC, 15 second contact time
[19] = Ocular irritation study (Draize); format: in vivo, New Zealand white rabbits; details: 0.1 ml, 689.5 ppm AFC, conjunctival sac; Draize scoring days 1, 2 and 3 post dose
Description: An eye irritation study was conducted on six healthy New Zealand white rabbits, free from evidence of ocular irritation and corneal abnormalities. The test article (0.1 ml hypochlorous acid, 689.5 ppm AFC) was placed into the conjunctival sac of one eye of each rabbit. The contralateral eye served as a control. The eyes were examined and scored by the Draize technique for any evidence of irritation or abnormalities of the cornea, on days 1, 2, and 3 post dose. The primary eye irritation score of each rabbit, each day was calculated. All eyes appeared normal at each observation period and there were no abnormal physical signs noted.

[20] = tested on: Staphylococcus epidermidis ATCC #14990; test: Microbial Time Kill Assay; format: cell-based; details: 150 ppm AFC, 15 second contact time
[21] = tested on: Candida albicans ATCC 10231; test: Fungicidal suspension test; format: cell-based
Description: as §2

[22] = tested on: Aspergillus niger ATCC 16404; test: Fungicidal suspension test; format: cell-based
Description: as §2

[23] = tested on: Staphylococcus aureus ATCC 6538; test: Bactericidal suspension test; format: cell-based
[24] = hypochlorous acid 40-180 ppm, suspension test

OCl [hypochlorous acid]
% Reduction (% Kill) [1]: >99.999%
HOCl Solution Log10 [1]: ≤1
HOCl Solution Survivors [1]: <10
Log Reduction [1]: ≥5.66
contact time after which pass was achieved [2, 24]: 15 min
Test Result (Log reduction) ([2]; in 15 min., 20° C. ± 1° C.): >10^4 in 15 min.
contact time after which pass was achieved [3, 24]: 60 min
Test Result (Log reduction) ([3]; in 60 min., 20° C. ± 1° C.): >10^6 in 60 min.
contact time after which pass was achieved [4, 24]: 60 min
Test Result (Log reduction) ([4]; in 60 min., 20° C. ± 1° C.): >10^6 in 60 min.
contact time after which pass was achieved [5, 24]: 60 min
Test Result (Log reduction) ([5]; in 60 min., 20° C. ± 1° C.): >10^6 in 60 min.
% Reduction (% Kill) [6]: >99.999%
HOCl Solution Log10 [6]: ≤1
HOCl Solution Survivors [6]: <10
Log Reduction [6]: ≥5.28
% Reduction (% Kill) [7]: >99.999%
HOCl Solution Log10 [7]: ≤1
HOCl Solution Survivors [7]: <10
Log Reduction [7]: ≥5.63
% Reduction (% Kill) [8]: >99.999%
HOCl Solution Log10 [8]: ≤1
HOCl Solution Survivors [8]: <10
Log Reduction [8]: ≥5.08
mutagenic activity [9]: No evidence of mutagenic activity
% Reduction (% Kill) [10]: >99.999%
HOCl Solution Log10 [10]: ≤1
HOCl Solution Survivors [10]: <10
Log Reduction [10]: ≥5.04
inactivation of MS2 [11]: > 3 log10
contact time after which pass was achieved [12, 24]: 15 s
Test Result (Log reduction) ([12]; in 5 min., 20° C. ± 1° C.): >10^5 in 5 min.
mortality or evidence of toxicity [13]: no mortality or evidence of toxicity
% Reduction (% Kill) [14]: >99.999%
HOCl Solution Log10 [14]: ≤1
HOCl Solution Survivors [14]: <10
Log Reduction [14]: ≥5.18
% Reduction (% Kill) [15]: >99.999%
HOCl Solution Log10 [15]: ≤1
HOCl Solution Survivors [15]: <10
Log Reduction [15]: ≥5.08
% Reduction (% Kill) [16]: >99.999%
HOCl Solution Log10 [16]: ≤1
HOCl Solution Survivors [16]: <10
Log Reduction [16]: ≥5.40
contact time after which pass was achieved [17, 24]: 5 min
Log Reduction ([17]; contact time 15 seconds): 3.15
Vashe Log10 ([17]; contact time 15 seconds): 2.52
Vashe Survivors ([17]; contact time 15 seconds): 330
% Reduction (% Kill) ([17]; contact time 15 seconds, listed as HOCl solution): 99.93%
% Reduction (% Kill) ([17]; contact time 15 seconds, listed as hypochlorous acid solution): > 99.9%
% Reduction (% Kill) ([17]; contact time 5 minutes): >99.999%
Log Reduction ([17]; contact time 5 minutes): ≥5.69
Vashe Log10 ([17]; contact time 5 minutes): ≤1
Vashe Survivors ([17]; contact time 5 minutes): <10
% Reduction (% Kill) [18]: >99.999%
HOCl Solution Log10 [18]: ≤1
HOCl Solution Survivors [18]: <10
Log Reduction [18]: ≥5.53
ocular irritation [19]: no ocular irritation
% Reduction (% Kill) [20]: >99.999%
HOCl Solution Log10 [20]: ≤1
HOCl Solution Survivors [20]: <10
contact time after which pass was achieved [21, 24]: 15 s
Test Result (Log reduction) ([21]; in 5 min., 20° C. ± 1° C.): >10^4 in 5 min.
contact time after which pass was achieved [22, 24]: 15 s
Test Result (Log reduction) ([22]; in 5 min., 20° C. ± 1° C.): >10^4 in 5 min.
contact time after which pass was achieved [23, 24]: 15 s
Test Result (Log reduction) ([23]; in 5 min., 20° C. ± 1° C.): >10^5 in 5 min.
